How the values were obtained:
[1] = system: ME-1 cells; assay: Cell viability (MTT) dose response and synergy analysis in ME-1 cells; assay type: cell-based, human; settings: ME-1 cells treated 72 hr, MTT assay
Description: Cell Viability Assay. Cell viability was estimated using the MTT kit, CellTiter 96® AQueous One Solution (Promega, PA). 20,000 cells/well were seeded in triplicate into 96-well plates. After 24-72 hrs, 20 μl of MTT reagent was added to wells containing cells or medium (blank), and absorption at 490 nm was measured using SpectraMax M5 plate reader (Molecular Devices).
The IC50 was estimated using the drc package in R with lower bound set to 0 (Ritz et al., 2015). CIs were calculated using the formula a/A+b/B. Synergisms, additive effect and antagonism of combine treatment assays are defined as CI<1, CI=1 and CI>1 respectively, utilizing the Chou-Talalay Method (Chou, 2010).

[2] = system: lineage negative mouse Cbfb+/MYH11 leukemic cells; assay: MYC expression in mouse Cbfb+/MYH11 leukemic cells; assay type: cell-based; settings: 5 μM AI-10-49, 24 hrs
Description: (§1) Murine bone marrow cells were isolated by crushing femur and tibia of the hind legs of mice. Wild type mouse bone marrow cells were cultured in StemSpan Serum-Free Expansion Medium (SFEM, Stemcell Technologies), 100 U/ml Penicillin and […] Streptomycin (Life Technologies) supplemented with 6 ng/ml murine recombinant IL3, 10 ng/ml murine recombinant IL6, and 50 ng/ml murine recombinant SCF. Cbfb^+/MYH11 and Nras^+/G120 leukemic bone marrow and spleen cells were cultured in StemSpan Serum-Free Expansion Medium (SFEM, Stemcell Technologies), 100 U/ml Penicillin and […] Streptomycin (Life Technologies) supplemented with 10 ng/ml murine recombinant IL3, and 50 ng/ml murine recombinant SCF.
(§2) Quantitative RT-PCR Analysis. mRNA was prepared with a PureLink® RNA Mini Kit (Life Technologies) and cDNA synthesis was performed with a SuperScript III kit (Life Technologies), per the manufacturers' instructions. Quantitative PCR analysis was conducted on an Applied Biosystems StepOnePlus System with Power SYBR® Green PCR Master Mix (Applied Biosystems). Expression levels were determined with the ΔCt method and normalized to ([…] and/or GAPDH. Sequences of primers are provided in the Key Resource Table.

[3] = molecular target: T1, CBFβ (Homo sapiens, UniProt Q13951); settings: cited from earlier work
T1 sequence (Q13951 1-182): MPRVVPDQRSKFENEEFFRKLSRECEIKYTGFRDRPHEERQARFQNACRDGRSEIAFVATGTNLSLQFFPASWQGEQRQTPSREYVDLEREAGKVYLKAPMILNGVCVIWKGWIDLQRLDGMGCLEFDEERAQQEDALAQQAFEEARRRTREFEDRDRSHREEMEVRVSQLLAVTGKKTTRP

[4] = system: RUNX1; assay: ChIP-seq for RUNX1 in ME-1 cells; assay type: cell-based, human; settings: AI-10-49 1 μM, 6 hrs
Description: (§3) Chromatin Immunoprecipitation (ChIP). ME-1 cells were treated with DMSO or AI-10-49 (1 μM) for six hrs. Cross-linking of proteins to DNA was accomplished by the addition of 1% formaldehyde for 10 min to cultured cells at room temperature. After neutralization with glycine, cells were lysed in lysis buffer with protease inhibitors and samples were sonicated to an average DNA length of 200-400 bp with a bioruptor (Diagenode). After sonication, the chromatin was immunoprecipitated with 10 μg of antibody of interest at 4° C. overnight. Antibody bound complexes were isolated with Dynabeads (Life Technologies). DNA was purified using phenol-chloroform isoamyl-alcohol method. Immunoprecipitated DNA was analyzed by sequencing (explained below) or qPCR on a StepOnePlus System (Applied Biosystems) with Power SYBR® Green PCR Master Mix and calculated as % of input.
(§4) Chromatin immunoprecipitation followed by sequencing (ChIP-seq). DNA concentration was quantified with a NanoDrop spectrophotometer (Thermo Scientific). DNA integrity was evaluated with a 2100 Bioanalyzer (Agilent Technologies). […] Libraries were quantified by qPCR, normalized and pooled before sequencing with single-end 50-bp reads on an Illumina HiSeq4000).
(§5) ChIP-seq data analysis. ChIP-seq reads were aligned to the human genome (hg19) with Bowtie2 v 2.1.0 (Langmead and Salzberg, 2012) with the standard default settings. […]

[5] = system: human primary inv(16) leukemic CD34+ cells; assay: MYC expression in human primary inv(16) AML cells; assay type: cell-based; settings: 5 μM AI-10-49, 24 hrs
Text: (§6) Primary Hematopoietic Cell Cultures. Human cord blood samples were collected from the UMASS Memorial Medical Center, and CD34^+ cells were isolated using the CD34 Microbead kit (Miltenyi Biotec). The use of the cord blood samples for research purposes was approved by the Ethics Committee of the University of Massachusetts Medical School. Human AML samples were received from Martin Peter Carroll (University of Pennsylvania) and Carsten Mueller-Tidow (University of Heidelberg, Germany). Hematopoietic CD34^+ cells were isolated from human AML bone marrow samples using the CD34 Microbead kit (Miltenyi Biotec). All patients gave written consent for use of their samples. […]
as §2

[6] = system: non-inv(16) AML cells (U937, K562, Jurkat, Kasumi-1 and THP-1); assay: MYC transcript levels in non-inv(16) AML cell lines; assay type: cell-based; settings: 1 μM AI-10-49, 6 hrs
Description: as §2

[7] = system: RUNX1; assay: ChIP-qPCR for RUNX1 at MYC enhancers in ME-1 cells; assay type: cell-based, human
Description: as §3, with “ME-1 cells were treated with DMSO or AI-10-49 (1 μM) for six hrs.” left out

[8] = system: H3K27ac; assay: ChIP-seq for H3K27ac in ME-1 cells; assay type: cell-based, human; settings: AI-10-49 1 μM, 6 hrs; DMSO 31,102
Description: as §3, §4, §5

[9] = system: wild type lineage negative mouse bone marrow cells; assay: MYC expression in normal mouse bone marrow cells; assay type: cell-based; settings: 5 μM AI-10-49, 24 hrs
Description: as §1, §2

[10] = system: MYC; assay: MYC transcript levels by qRT-PCR in ME-1 cells; assay type: cell-based, human; settings: for MYC transcript and protein levels: single agent treatment of ME-1 cells
Description: as §2

[11] = system: ME-1 cells; assay: RNA-sequencing expression analysis of AI-10-49 treated ME-1 cells; assay type: cell-based, human; settings: AI-10-49 1 μM, 6 hrs
Description: RNA Sequencing. The RNA for RNA-sequencing was prepared with a PureLink® RNA Mini Kit. RNA concentration was quantified with a NanoDrop spectrophotometer (Thermo Scientific). RNA integrity was evaluated with a 2100 Bioanalyzer with an RNA 6000 kit (Agilent Technologies). Libraries were prepared with a TruSeq RNA library preparation kit (Illumina). Libraries were quantified by qPCR, normalized and pooled before sequencing with paired-end 90-bp reads on an Illumina HiSeq2000 in triplicate.
RNA-seq data analysis. Raw reads from RNA-seq experiment were assessed for their quality using fastqc, followed by alignment to the reference human genome (hg19) using tophat v 2.0.9, bowtie2/2.1.0 (Trapnell et al., 2009) with the default setting except the following parameters: -b2-very-sensitive-mate-inner-dist 160-mate-std-dev 80-no-coverage-search-transcriptome-index=hg19_knownGene_transcriptome_data. Differential gene expression analysis was performed by cufflinks v 2.2.0 (Trapnell et al., 2012).

[12] = system: human cord blood CD34+ cells; assay: MYC expression in normal human CD34+ hematopoietic cells; assay type: cell-based; settings: 5 μM AI-10-49, 24 hrs
Text: as §6, §2

[13] = system: RING1B; assay: Time-course ChIP-qPCR for RING1B at E3 in ME-1 cells; assay type: cell-based, human; settings: by 5 hr of AI-10-49 treatment
Description: as §3, with “ME-1 cells were treated with DMSO or AI-10-49 (1 μM) for six hrs.” left out

[14] = system: CBFβ-SMMHC-expressing (Nras/CM) leukemia cells; assay: Leukemia transplantation study in mice (leukemia latency); assay type: in vivo, mouse; settings: i.p. from day 5; AI-10-49 200 mg/kg/day for 10 days, JQ1 50 mg/kg/day for 21 days
Description: Leukemia transplantation studies in mice. […] AI-10-49 was administered at 200 mg/kg/day from day 5 to day 14. […] Mice were sacrificed after visible characteristics of AML, including reduced motility and grooming activity, hunched back, and pale paws (anemia). Leukemic cells were extracted from spleen and analyzed at time of euthanasia as previously described (Kuo et al., 2006).
Statistical Analysis. Analysis was performed using R, a system for statistical computation and graphics (Ihaka and Gentleman, 1996). For mouse leukemia survival analysis, the leukemia latency and P-values were estimated using Survival package in R. P-value between groups was calculated using log-rank test. Relative cell viability, measured as the proportion of viable cells, was first arcsine-transformed to homogenize the variance. […] One-way ANOVA was performed followed by predetermined contrasts for FIGS. 2A, 2B, 2C, 2D, 2E, 4D and 7C. Two-way ANOVA was performed followed by Tukey's honest significance test for FIG. 3C. To compare the response curves (FIGS. 3A & 3D), an indicator variable was created to distinguish the two-drug treatment and one of the single-drug treatments. Two-way ANOVA was performed to compare a single-drug treatment and the two-drug treatment.

[15] = system: MYC; assay: MYC protein levels by immunoblot in ME-1 cells; assay type: cell-based, human; settings: 0.1 μM and greater concentrations, 6 hrs
Description: Immunoblotting. ME-1 cells were lysed in modified RIPA buffer (50 mM Tris pH7.5, 150 mM NaCl, 1% NP40, 0.25% sodium deoxycholate and 1 mM EDTA) with phosphatase inhibitor (Sigma) and protease inhibitors (Millipore) for 15 min in ice followed by centrifugation. Nuclear and cytoplasmic fractions were isolated using Subcellular Protein Fractionation Kit (Thermo Fisher Scientific) according to the manufacturer's instructions. Protein concentrations were determined with the Biorad Protein Assay (Biorad). Proteins were separated on precast 8-12% Mini Protean TGX gels at 60-80 V using the Mini Protean electrophoresis system and were blotted onto PVDF membrane at 100V for 90 min in a Mini Trans-Blot Cell. All antibodies were used as recommended by the manufacturer and mentioned in Key Resource Table. Relative band intensities were quantified using ImageJ software.

[16] = relative to the methoxy compound; cited from earlier work
[17] = AI-10-49 versus DMSO, ME-1 cells

FC(F)(F)Oc1ccc2[nH]c(-c3ccc(OCCOCCOc4ccc(-c5nc6cc(OC(F)(F)F)ccc6[nH]5)nc4)cn3)nc2c1 [AI-10-49]
LD50 range at 95% confidence intervals [1]: 0.398 to 0.537 mM | MYC expression [2]: reduced | effect on CBFβ function [3]: minimal effect | increase in RUNX1 binding to target regulatory elements ([4]; versus DMSO): 7 fold | RUNX1 binding sites ([4]; DMSO 991): 6,652 sites | MYC expression [5]: reduced | repression of MYC transcript levels [6]: not in non-inv(16) AML cell lines | RUNX1 peak increase at BDME-E3 [7, 17]: 8 fold | RUNX1 peak increase at E5 [7, 17]: 1.8 fold | RUNX1 peak increase at ME1 [7, 17]: 5 fold | RUNX1 peak increase at ME2 [7, 17]: 3 fold | RUNX1 occupancy at E3 ([7]; time course, by 5 hr of AI-10-49 treatment): 90% | H3K27ac positive peaks [8]: 24,157 peaks | MYC expression [9]: not affected | repression of MYC transcript levels ([10]; 1 uM AI-10-49, 6 hrs, ME-1 cells): 10 fold | MYC transcript and protein levels [10]: readily reduced | E2F1 levels repressed (RNA-seq) [11]: 3 fold | MYC levels repressed (RNA-seq) [11]: over 10 fold | MYC expression [12]: not affected | RING1B occupancy at E3 [13]: 90% | median latency of leukemia [14]: 39 days | MYC protein levels depleted [15]: approximately 20 fold

FC(F)(F)Oc1ccc2[nH]c(-c3ccccn3)nc2c1 [A-10-47, 2-(pyridin-2-yl)-5-(trifluoromethoxy)-1H-benzo[d]imidazole]
metabolic stability [16]: enhanced metabolic stability

Cc1sc2c(c1C)C(c1ccc(Cl)cc1)=N[C@@H](CC(=O)OC(C)(C)C)c1nnc(C)n1-2 [JQ1, reference compound]
MYC transcript and protein levels [10]: readily reduced | median latency of leukemia [14]: 32 days

Source: US11931352B2, “Combination therapies for treating cancer” (UNIVERSITY OF VIRGINIA PATENT FOUNDATION, priority 2018, dated 2024)
